Laboratory results taken from the supplement of paper PMC6045584.
± gives the standard deviation of the averaged measurements.

Columns and labels:
IMATINIB [1] = compound: T1, Cc1ccc(NC(=O)c2ccc(CN3CCN(C)CC3)cc2)cc1Nc1nccc(-c2cccnc2)n1 [IMATINIB]; experiment: area under dose-response curve of surviving fraction (unscaled, Aref=0) (surviving fraction x log10(nM)); higher = more resistant; conditions: exposure time: 5 days; dose range 0.5-1000 nM
In short: (§1)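 Tumour cell lines in 384-well plates were exposed to eight inhibitor concentrations, from 0.5 to 1000 nM, for five days, and viability was read by CellTiter-Glo luminescence in three screens per line. Signals were normalised to DMSO-only wells, and 3-parameter logistic regression in the drc R package fitted dose-response survival curves to the surviving fractions. Area under the curve is given as the unscaled activity area. That area is taken over log10 dose with Aref = 0.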

[2] = compound: C[C@H](CN(C)C)Oc1nc(Nc2cc3cccc(Cl)c3cn2)cnc1C#N; experiment: as above; conditions: exposure time: 5 days; dose range 0.5-1000 nM
In short: as §1

AFIMOXIFENE [3] = compound: T2, CC/C(=C(\c1ccc(O)cc1)c1ccc(OCCN(C)C)cc1)c1ccccc1 [AFIMOXIFENE]; experiment: as above; conditions: exposure time: 5 days; dose range 0.5-1000 nM
In short: as §1

CABOZANTINIB [4] = compound: T3, COc1cc2nccc(Oc3ccc(NC(=O)C4(C(=O)Nc5ccc(F)cc5)CC4)cc3)c2cc1OC [CABOZANTINIB]; experiment: as above; conditions: exposure time: 5 days; dose range 0.5-1000 nM
In short: as §1

BMN-673 [5] = compound: T4, Cn1ncnc1[C@H]1c2n[nH]c(=O)c3cc(F)cc(c23)N[C@@H]1c1ccc(F)cc1 [BMN-673]; experiment: as above; conditions: exposure time: 5 days; dose range 0.5-1000 nM
In short: as §1

NILOTINIB [6] = compound: T5, Cc1cn(-c2cc(NC(=O)c3ccc(C)c(Nc4nccc(-c5cccnc5)n4)c3)cc(C(F)(F)F)c2)cn1 [NILOTINIB]; experiment: as above; conditions: exposure time: 5 days; dose range 0.5-1000 nM
In short: as §1

IMATINIB [7] = compound: T1, IMATINIB; experiment: surviving fraction relative to DMSO-only wells; higher = less growth inhibition; conditions: exposure time: 5 days
In short: (§2)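 Log-phase tumour cell lines, 250–500 cells per well in 384-well plates, received inhibitors at 0.5, 1, 5, 10, 50, 100, 500 and 1000 nM continuously for five days, starting 24 hours after seeding. Viability was quantified with CellTiter-Glo luminescence and normalised to the median of DMSO-only wells to give surviving fraction. Three screens were run per line, and a line stayed in only with replicate Pearson r >0.7 and median Z' >0.3.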

[8] = compound: C[C@H](CN(C)C)Oc1nc(Nc2cc3cccc(Cl)c3cn2)cnc1C#N; experiment: as above; conditions: exposure time: 5 days
In short: as §2

AFIMOXIFENE [9] = compound: T2, AFIMOXIFENE; experiment: as above; conditions: exposure time: 5 days
In short: as §2

CABOZANTINIB [10] = compound: T3, CABOZANTINIB; experiment: as above; conditions: exposure time: 5 days
In short: as §2

BMN-673 [11] = compound: T4, BMN-673; experiment: as above; conditions: exposure time: 5 days
In short: as §2

NILOTINIB [12] = compound: T5, NILOTINIB; experiment: as above; conditions: exposure time: 5 days
In short: as §2

MK-1775 = compound: C=CCn1c(=O)c2cnc(Nc3ccc(N4CCN(C)CC4)cc3)nc2n1-c1cccc(C(C)(C)O)n1 [MK-1775]; experiment: area under dose-response curve of surviving fraction (unscaled, Aref=0) (surviving fraction x log10(nM)); higher = more resistant; conditions: exposure time: 5 days; dose range 0.5-1000 nM
In short: as §1

BEZ-235 = compound: Cn1c(=O)n(-c2ccc(C(C)(C)C#N)cc2)c2c3cc(-c4cnc5ccccc5c4)ccc3ncc21 [BEZ-235]; experiment: as above; conditions: exposure time: 5 days; dose range 0.5-1000 nM
In short: as §1

[13] = compound: COc1ccc(-c2cc3c(C)nc(N)nc3n([C@H]3CC[C@H](OCCO)CC3)c2=O)cn1; experiment: as above; conditions: exposure time: 5 days; dose range 0.5-1000 nM
In short: as §1

[14] = compound: CCc1cc(Nc2nccc(-c3c(-c4ccc(OC)c(C(=O)Nc5c(F)cccc5F)c4)nc4ccccn34)n2)c(OC)cc1N1CCC(N2CCN(S(C)(=O)=O)CC2)CC1; experiment: as above; conditions: exposure time: 5 days; dose range 0.5-1000 nM
In short: as §1

VORINOSTAT = compound: O=C(CCCCCCC(=O)Nc1ccccc1)NO [VORINOSTAT]; experiment: as above; conditions: exposure time: 5 days; dose range 0.5-1000 nM
In short: as §1

BLEOMYCIN = compound: Cc1c(N)nc([C@H](CC(N)=O)NC[C@H](N)C(N)=O)nc1C(=O)N[C@H](C(=O)N[C@H](C)[C@@H](O)[C@H](C)C(=O)N[C@H](C(=O)NCCc1nc(-c2nc(C(=O)NCCC[S+](C)C)cs2)cs1)[C@@H](C)O)[C@@H](OC1OC(CO)C(O)C(O)C1OC1OC(CO)C(O)C(OC(N)=O)C1O)c1cnc[nH]1 [BLEOMYCIN]; experiment: as above; conditions: exposure time: 5 days; dose range 0.5-1000 nM
In short: as §1

## CCK81 LARGE INTESTINE
IMATINIB [1]
  area under dose-response curve: 2.6
[2]
  area under dose-response curve: 2.09
AFIMOXIFENE [3]
  area under dose-response curve: 2.84
CABOZANTINIB [4]
  area under dose-response curve: 2.42
BMN-673 [5]
  area under dose-response curve: 2.04
NILOTINIB [6]
  area under dose-response curve: 2.58
IMATINIB [7]; 0.5 nM
  surviving fraction: 0.813 ± 0.083
IMATINIB [7]; 1 nM
  surviving fraction: 0.815 ± 0.09
IMATINIB [7]; 5 nM
  surviving fraction: 0.81 ± 0.038
IMATINIB [7]; 10 nM
  surviving fraction: 0.795 ± 0.048
IMATINIB [7]; 50 nM
  surviving fraction: 0.706 ± 0.049
IMATINIB [7]; 100 nM
  surviving fraction: 0.843 ± 0.11
IMATINIB [7]; 500 nM
  surviving fraction: 0.741 ± 0.078
IMATINIB [7]; 1000 nM
  surviving fraction: 0.778 ± 0.047
[8]; 0.5 nM
  surviving fraction: 0.681 ± 0.1
[8]; 1 nM
  surviving fraction: 0.819 ± 0.097
[8]; 5 nM
  surviving fraction: 0.726 ± 0.09
[8]; 10 nM
  surviving fraction: 0.739 ± 0.029
[8]; 50 nM
  surviving fraction: 0.774 ± 0.15
[8]; 100 nM
  surviving fraction: 0.52 ± 0.084
[8]; 500 nM
  surviving fraction: 0.349 ± 0.069
[8]; 1000 nM
  surviving fraction: 0.374 ± 0.049
AFIMOXIFENE [9]; 0.5 nM
  surviving fraction: 0.822 ± 0.1
AFIMOXIFENE [9]; 1 nM
  surviving fraction: 0.889 ± 0.095
AFIMOXIFENE [9]; 5 nM
  surviving fraction: 0.866 ± 0.083
AFIMOXIFENE [9]; 10 nM
  surviving fraction: 0.822 ± 0.09
AFIMOXIFENE [9]; 50 nM
  surviving fraction: 0.987 ± 0.24
AFIMOXIFENE [9]; 100 nM
  surviving fraction: 0.749 ± 0.051
AFIMOXIFENE [9]; 500 nM
  surviving fraction: 0.932 ± 0.04
AFIMOXIFENE [9]; 1000 nM
  surviving fraction: 0.82 ± 0.027
CABOZANTINIB [10]; 0.5 nM
  surviving fraction: 0.691 ± 0.07
CABOZANTINIB [10]; 1 nM
  surviving fraction: 0.837 ± 0.062
CABOZANTINIB [10]; 5 nM
  surviving fraction: 0.725 ± 0.12
CABOZANTINIB [10]; 10 nM
  surviving fraction: 0.764 ± 0.019
CABOZANTINIB [10]; 50 nM
  surviving fraction: 0.704 ± 0.073
CABOZANTINIB [10]; 100 nM
  surviving fraction: 0.686 ± 0.075
CABOZANTINIB [10]; 500 nM
  surviving fraction: 0.718 ± 0.12
CABOZANTINIB [10]; 1000 nM
  surviving fraction: 0.743 ± 0.08
BMN-673 [11]; 0.5 nM
  surviving fraction: 0.838 ± 0.087
BMN-673 [11]; 1 nM
  surviving fraction: 0.781 ± 0.094
BMN-673 [11]; 5 nM
  surviving fraction: 0.733 ± 0.091
BMN-673 [11]; 10 nM
  surviving fraction: 0.619 ± 0.092
BMN-673 [11]; 50 nM
  surviving fraction: 0.54 ± 0.034
BMN-673 [11]; 100 nM
  surviving fraction: 0.552 ± 0.03
BMN-673 [11]; 500 nM
  surviving fraction: 0.493 ± 0.079
BMN-673 [11]; 1000 nM
  surviving fraction: 0.406 ± 0.058
NILOTINIB [12]; 0.5 nM
  surviving fraction: 0.78 ± 0.088
NILOTINIB [12]; 1 nM
  surviving fraction: 0.839 ± 0.07
NILOTINIB [12]; 5 nM
  surviving fraction: 0.759 ± 0.055
NILOTINIB [12]; 10 nM
  surviving fraction: 0.737 ± 0.11
NILOTINIB [12]; 50 nM
  surviving fraction: 0.931 ± 0.04
NILOTINIB [12]; 100 nM
  surviving fraction: 0.877 ± 0.046
NILOTINIB [12]; 500 nM
  surviving fraction: 0.702 ± 0.1
NILOTINIB [12]; 1000 nM
  surviving fraction: 0.616 ± 0.023

## HS57T LUNG
IMATINIB [1]
  area under dose-response curve: 3.57
MK-1775
  area under dose-response curve: 2.19
[2]
  area under dose-response curve: 2.65
BEZ-235
  area under dose-response curve: 1.94
[13]
  area under dose-response curve: 2.21
AFIMOXIFENE [3]
  area under dose-response curve: 3.68
[14]
  area under dose-response curve: 3.36
VORINOSTAT
  area under dose-response curve: 3.16
BLEOMYCIN
  area under dose-response curve: 2.57
CABOZANTINIB [4]
  area under dose-response curve: 3.09
BMN-673 [5]
  area under dose-response curve: 2.92
NILOTINIB [6]
  area under dose-response curve: 3.38
